# Reference: patent US20260028374A1, “EPIDERMAL GROWTH FACTOR RECEPTOR INHIBITORS” (FILAMON LTD, priority 2023, published 2026)
# Square brackets hold non-standard residues; d marks the D form. Peptide text beside a SMILES is read from it. 2Nal = N[C@@H](Cc1ccc2ccccc2c1)C(=O)O
# Assays:
# PC-3 cells = assay: MTS cell viability assay; assay type: cell-based; details: PC-3, MTS, 72 hours, 0-250 μM
# Experimental: FIG. 2. (a) Structure of FLM-c2 derivatives D1 (top), D2 (middle) and D3 (bottom) (b) Molecular modelling of compounds D1, D2 and D3. Representation of the molecules are as described in FIG. 1. (c) MTS assay of PC-3 cells treated with FLM-c2, D-1 D3 (0.1-250 μM).
# To quantify cell toxicity of FLM-c2, the MTS (3-(4,5-dimethylthiazol-2-yl)-5-(3-carboxymethoxyphenyl)-2-(4-sulfophenyl)-2H-tetrazolium) assay was performed using CellTiter 96@AQueous One Solution Cell Proliferation Assay reagent (Promega, Madison, WI), as per the manufacturer's instructions. PC-3 cells were seeded at 2000 cells per well on a 96 well plate overnight at 37° C. and 5% C02. Cells were then treated with 0-250 μM with each of FLM-c2, D1, D2 and D3, which was incubated for 72 hours at 37° C. and 5% C02. Medium was replaced with 100 μL/well of phenol red-free MEM (Sigma-Aldrich) and 20 μL/well of the MTS reagent was added. After incubation for 3 hours in 37° C. with 5% C02, the absorbance was measured at 490 nm with Spectramax M5e.
# EGF-EGFR interaction = biological target: T1, EGF-EGFR interaction (Homo sapiens, UniProt P00533); assay: EGF-EGFR AlphaLISA assay; assay type: binding; details: in vitro AlphaLISA
# T1 construct: purchased Perkin-Elmer
# T1 sequence (P00533 25-645 limits assumed): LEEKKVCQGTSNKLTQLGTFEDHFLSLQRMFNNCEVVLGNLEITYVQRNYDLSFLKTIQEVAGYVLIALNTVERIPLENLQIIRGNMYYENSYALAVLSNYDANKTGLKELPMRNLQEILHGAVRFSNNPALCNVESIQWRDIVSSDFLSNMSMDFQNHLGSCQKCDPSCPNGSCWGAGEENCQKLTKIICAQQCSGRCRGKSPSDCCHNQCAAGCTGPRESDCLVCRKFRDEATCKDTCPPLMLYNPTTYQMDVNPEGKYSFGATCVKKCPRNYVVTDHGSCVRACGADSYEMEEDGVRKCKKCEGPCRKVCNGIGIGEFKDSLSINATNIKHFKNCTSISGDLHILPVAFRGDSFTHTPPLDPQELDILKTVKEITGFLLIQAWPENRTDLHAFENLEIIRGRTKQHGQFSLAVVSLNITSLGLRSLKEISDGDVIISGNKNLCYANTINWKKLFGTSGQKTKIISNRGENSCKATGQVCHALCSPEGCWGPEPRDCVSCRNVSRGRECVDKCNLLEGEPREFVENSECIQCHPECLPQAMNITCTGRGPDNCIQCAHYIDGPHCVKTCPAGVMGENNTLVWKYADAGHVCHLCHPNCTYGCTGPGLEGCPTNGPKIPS
# Experimental: FIG. 2. […] Representation of the molecules are as described in FIG. 1.
# The AlphaLISA EGF/EGFR binding kit (Perkin-Elmer) was used as per the manufacturer's instructions. […] Finally, 5 μL of EGFR acceptor beads were added, and fluorescence imaged on a plate reader.
# [1] = biological target: T2, hGIIA interaction with EGFR (Homo sapiens, UniProt P00533); assay: Co-immunoprecipitation of hGIIA and EGFR in PC-3 cells; assay type: cell-based; details: PC-3, hGIIA 2 μg/mL, FLM-c2 100 μM
# T2 construct: endogenous in cells; host or cells: PC-3
# T2 sequence (P00533 25-1210): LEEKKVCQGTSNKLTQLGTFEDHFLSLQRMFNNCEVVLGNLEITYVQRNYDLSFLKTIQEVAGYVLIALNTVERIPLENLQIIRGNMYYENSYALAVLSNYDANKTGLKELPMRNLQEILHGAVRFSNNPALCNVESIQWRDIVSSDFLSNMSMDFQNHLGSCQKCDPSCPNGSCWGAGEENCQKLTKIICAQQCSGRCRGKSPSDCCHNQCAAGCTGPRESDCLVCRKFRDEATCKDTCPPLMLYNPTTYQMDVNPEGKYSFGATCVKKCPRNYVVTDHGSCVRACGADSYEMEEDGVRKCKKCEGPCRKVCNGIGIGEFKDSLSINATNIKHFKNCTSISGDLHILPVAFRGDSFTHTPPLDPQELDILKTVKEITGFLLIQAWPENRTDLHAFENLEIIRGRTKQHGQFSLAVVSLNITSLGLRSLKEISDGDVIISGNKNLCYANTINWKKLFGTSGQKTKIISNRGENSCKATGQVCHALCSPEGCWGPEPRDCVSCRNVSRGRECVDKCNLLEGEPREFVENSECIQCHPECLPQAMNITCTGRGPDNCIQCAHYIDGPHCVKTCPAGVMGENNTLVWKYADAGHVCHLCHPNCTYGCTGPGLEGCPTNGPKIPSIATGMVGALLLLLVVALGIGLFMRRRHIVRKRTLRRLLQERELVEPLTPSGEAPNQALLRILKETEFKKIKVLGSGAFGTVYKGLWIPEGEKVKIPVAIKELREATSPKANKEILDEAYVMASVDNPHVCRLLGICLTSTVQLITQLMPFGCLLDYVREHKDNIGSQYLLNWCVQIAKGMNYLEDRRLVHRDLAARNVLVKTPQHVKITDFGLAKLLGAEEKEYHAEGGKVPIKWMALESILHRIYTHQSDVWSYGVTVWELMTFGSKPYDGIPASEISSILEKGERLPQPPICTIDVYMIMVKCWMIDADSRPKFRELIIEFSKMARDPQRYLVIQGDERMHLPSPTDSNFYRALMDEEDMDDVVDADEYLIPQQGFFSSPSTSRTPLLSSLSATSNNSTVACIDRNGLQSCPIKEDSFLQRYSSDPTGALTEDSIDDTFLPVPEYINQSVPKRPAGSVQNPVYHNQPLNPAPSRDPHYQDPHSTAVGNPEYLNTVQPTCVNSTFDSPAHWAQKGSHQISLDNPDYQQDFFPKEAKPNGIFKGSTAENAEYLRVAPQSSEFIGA
# Experimental: FIG. 1. (a), Amino acid sequence of human group IIA-secreted phospholipase A2 (hGIIA) predicted to interact with EGF-binding site of EGFR shown in magenta; helices shown as red braids; β strands as green arrows; and loops as blue lines. Sequence from which FLM-c2 is derived shown with orange box. (b), Prostate cancer cell line PC-3 incubated with hGIIA (2 μg/mL) and FLM-c2 (100 μM) for 3 hours before lysing and pulldown with hGIIA antibody followed by detection with EGFR antibody. (c), molecular modelling of EGF (pink ribbon) and (d), FLM-c2 analogue (cyclo-(Phe-Leu-Ser-Phe-Arg)) (stick diagram. Yellow, carbon; blue, nitrogen; red oxygen) binding to EGFR. EGFR is depicted as a surface model (red, basic surfaces; blue, acidic surfaces, yellow; cysteine residues; green, hydrophobic surfaces; white neutral surfaces). (e) PC-3 cells co-transfected with Rab5-mCherry (red), EGFR-GFP (green) and treated with hGIIA/AF647 (purple) as well as c2 at 1 μM and 10 μM for 24 hours. EGF (25 ng/mL) and Lapatinib (5 μM) were used as control treatments. N=3, >5 cells per replicate.
# PC-3 cells were seeded in a 6-well plate at 300,000 cells/well and grown overnight at 37° C. and 5% CO2. Cells were then incubated with 2 μg/mL hGIIA with and without FLM-c2 (100 μM) for two hours. After incubation, cells were washed three times with 10 mL ice cold PBS for 2 min. […]
# [2] = test system: EGFR, Rab5 and hGIIA localisation; assay: Live cell imaging of EGFR, Rab5 and hGIIA localisation in PC-3 cells; assay type: cell-based; details: PC-3, c2 10 μM with hGIIA/AF647, 24 hours
# Experimental: The effect of c2 on EGFR, Rab5 and hGIIA localisation was also examined in PC-3 cells. PC-3 cells were co-transfected with EGFR-EGFP and Rab5-mCherry before treatment with hGIIA/AF647 and c2 at 0, 1 and 10 μM.
# EGFR = EGFR (Homo sapiens, UniProt P00533); assay: Western blot of EGFR in PC-3 cells; assay type: cell-based; details: PC-3, 100 μM, 24 hours
# Sequence of EGFR (P00533 25-1210): as above
# Experimental: FIG. 3. (a) PC-3 cells treated with DMSO (0.5%), FLM-c2 (100 μM), D1-D3 (100 μM) or EGF (50 ng/mL) for 24 h, detected for EGFR and GAPDH. (b) PC-3 cells tagged with EGFR-EGFP and lysotracker treated with DMSO (0.5%) or D3 (100 μM) for 24 h.
# FIG. 4. (a) PC-3 cells were treated with D1-D3 (100 μM) for 3, 16, 24 and 48 hours. EGFR and ß-Actin ratio was detected. (b) the EGFR:ß-Actin ratio was plotted after normalising to DMSO control.
# PC-3 cells were seeded in a 6 well plate at 200,000 cells/well overnight at 37° C. and 5% C02. Media was removed, cells were washed with PBS and serum free media added 1 hour before treatment with FLM-c2, D1-D3 for 3-48 hours. After treatment, media was removed and cells were washed with ice cold PBS. PBS was removed and cells were scraped into 1 mL of PBS containing 5.3 mM of EDTA and centrifuged at 2500 g for 2 min. PBS was removed and cells were lysed with lysis buffer (PBS, 0.1% NP-40, 0.1% sodium deoxycholate, 150 mM NaCl, 1 mM EDTA, 1 mM dithiothreitol, 1 mM phenylmethylsulfonyl fluoride, and IX protease inhibitor cocktail)^17 and mixed with RM-2L Intelli-mixer for 30 min at 4° C. Lysates were then centrifuged at 12,000 g for 20 min at 4° C. 20 μg of lysate was added to 4 μL of Bolt reducing agent and 10 μL of reducing buffer (both reagents supplied by Thermo Fisher Scientific) for a final volume of 40 μL with PBS. Samples were boiled and run on a gel, transferred to a membrane and blocked for 1 hour in 5% skim milk at 25° C. Membrane was probed with either EGFR antibody #2232, GAPDH antibody #2118 or BS-Actin antibody #4970 (Cell Signalling) at 1:1000 in 5% skim milk/TBST overnight at 4° C. Each membrane was washed three times with 50 mL TBST for 5 mins and then incubated with the relevant secondary α-rabbit IgG-HRP-linked antibody (1:1000), for 1 hour at room temperature. The membrane was washed as described above and imaged with the Licor Odyssey.
# [3] = test system: hGIIA-driven eicosanoid production; details: prostate cancer cells; Mann et al. in review; cited from earlier work
structure (smiles),measurement,setting,value
"CC(C)C[C@@H]1NC(=O)[C@H](Cc2ccc3ccccc3c2)NC(=O)[C@H](CCCNC(=N)N)NC(=O)[C@H](Cc2ccc3ccccc3c2)NC(=O)[C@H](CO)NC1=O [FLM-c2, cyclo-((2-Nal)-Leu-Ser-(2-Nal)-Arg)] (cyclo([2Nal]LS[2Nal]R))",IC50,PC-3 cells,211 µM
same,potency order in inhibiting the EGF/EGFR interaction,EGF-EGFR interaction,FLM-c2>D1>D2>D3
same,inhibition of the EGF/EGFR interaction,EGF-EGFR interaction; 0.01-200 μM,inhibited the EGF/EGFR interaction at high concentrations
same,inhibition of hGIIA-EGFR interaction (EGFR signal after pulldown with hGIIA antibody),[1],able to inhibit this interaction
same,"effect on EGFR, Rab5 and hGIIA localisation",[2],"increased hGIIA/AF647 and Rab5-mCherry punctate size, as well as circularisation of EGFR-GFP expression"
same,EGFR degradation by western blot,EGFR,did not
same,inhibition of hGIIA-driven eicosanoid production,[3],known to inhibit hGIIA-driven eicosanoid production
